Source: patent publication US9278963B2, “Pyrimidine hydroxy amide compounds as histone deacetylase inhibitors” (Acetylon Pharmaceuticals, Inc., priority 2013, dated 2016)

How the values were obtained:
Type in all cases: biochemical
HDAC1 = HDAC1 (Homo sapiens (Human), UniProt Q13547); experiment: HDAC enzyme assay, HDAC1
Protocol: (§1) Compounds for testing were diluted in DMSO to 50 fold the final concentration and a ten point three fold dilution series was made. The compounds were diluted in assay buffer (50 mM HEPES, pH 7.4, 100 mM KCl, 0.001% Tween-20, 0.05% BSA, 20 μM TCEP) to 6 fold their final concentration. The HDAC enzymes (purchased from BPS Biosciences) were diluted to 1.5 fold their final concentration in assay buffer. The tripeptide substrate and trypsin at 0.05 μM final concentration were diluted in assay buffer at 6 fold their final concentration. The final enzyme concentrations used in these assays were 3.3 ng/ml (HDAC1), 0.2 ng/ml (HDAC2), 0.08 ng/ml (HDAC3) and 2 ng/ml (HDAC6). The final substrate concentrations used were 16 μM (HDAC1), 10 μM (HDAC2), 17 μM (HDAC3) and 14 μM (HDAC6).
(§2) Five μl of compounds and 20 μl of enzyme were added to wells of a black, opaque 384 well plate in duplicate. Enzyme and compound were incubated together at room temperature for 10 minutes. Five μ1 of substrate was added to each well, the plate was shaken for 60 seconds and placed into a Victor 2 microtiter plate reader. The development of fluorescence was monitored for 60 min and the linear rate of the reaction was calculated. The IC50 was determined using Graph Pad Prism by a four parameter curve fit.

HDAC3 = HDAC3 (Homo sapiens (Human), UniProt O15379); experiment: HDAC enzyme assay, HDAC3
Chain of HDAC3 (O15379 whole entry): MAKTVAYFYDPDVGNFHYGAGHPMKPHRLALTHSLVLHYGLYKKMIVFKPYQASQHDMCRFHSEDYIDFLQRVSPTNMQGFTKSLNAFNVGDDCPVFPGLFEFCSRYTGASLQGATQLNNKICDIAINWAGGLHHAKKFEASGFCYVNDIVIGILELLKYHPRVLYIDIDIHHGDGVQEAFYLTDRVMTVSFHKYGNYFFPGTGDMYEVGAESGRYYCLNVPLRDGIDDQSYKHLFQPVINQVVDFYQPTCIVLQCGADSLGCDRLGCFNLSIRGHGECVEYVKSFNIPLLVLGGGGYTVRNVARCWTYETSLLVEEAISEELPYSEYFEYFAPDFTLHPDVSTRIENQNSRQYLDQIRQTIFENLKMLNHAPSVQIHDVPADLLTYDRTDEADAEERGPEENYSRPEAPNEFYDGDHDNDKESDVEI
Chain of HDAC3 (Q9Y618 395-489 partner): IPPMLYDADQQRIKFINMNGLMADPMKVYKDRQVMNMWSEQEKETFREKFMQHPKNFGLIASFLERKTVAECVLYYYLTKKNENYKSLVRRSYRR
Protocol: as §1, with “The HDAC enzymes (purchased from BPS Biosciences) were diluted to 1.5 fold their final concentration in assay buffer.” left out, “(HDAC6).” for “(HDAC6). The final substrate concentrations used were 16 μM (HDAC1), 10 μM (HDAC2), 17 μM (HDAC3) and 14 μM (HDAC6).”
as §2

HDAC2 = HDAC2 (Homo sapiens (Human), UniProt Q92769); experiment: HDAC enzyme assay, HDAC2
Chain of HDAC2 (Q92769 whole entry): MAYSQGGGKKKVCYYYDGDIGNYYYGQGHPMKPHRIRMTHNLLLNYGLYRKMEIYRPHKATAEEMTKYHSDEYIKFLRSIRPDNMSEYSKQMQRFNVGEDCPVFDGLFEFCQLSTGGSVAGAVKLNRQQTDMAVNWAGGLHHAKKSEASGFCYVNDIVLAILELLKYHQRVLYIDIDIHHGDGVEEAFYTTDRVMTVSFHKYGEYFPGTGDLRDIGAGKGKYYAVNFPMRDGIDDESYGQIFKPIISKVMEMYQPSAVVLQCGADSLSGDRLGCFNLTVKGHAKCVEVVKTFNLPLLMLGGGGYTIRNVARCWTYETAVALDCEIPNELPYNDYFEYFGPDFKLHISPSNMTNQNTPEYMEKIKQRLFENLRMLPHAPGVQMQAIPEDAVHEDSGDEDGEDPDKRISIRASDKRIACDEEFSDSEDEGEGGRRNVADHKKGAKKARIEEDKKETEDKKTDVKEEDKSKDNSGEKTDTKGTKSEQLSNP
Protocol: as §1, §2

HDAC6 = HDAC6 (Homo sapiens (Human), UniProt Q9UBN7); experiment: HDAC enzyme assay, HDAC6
Chain of HDAC6 (Q9UBN7 whole entry): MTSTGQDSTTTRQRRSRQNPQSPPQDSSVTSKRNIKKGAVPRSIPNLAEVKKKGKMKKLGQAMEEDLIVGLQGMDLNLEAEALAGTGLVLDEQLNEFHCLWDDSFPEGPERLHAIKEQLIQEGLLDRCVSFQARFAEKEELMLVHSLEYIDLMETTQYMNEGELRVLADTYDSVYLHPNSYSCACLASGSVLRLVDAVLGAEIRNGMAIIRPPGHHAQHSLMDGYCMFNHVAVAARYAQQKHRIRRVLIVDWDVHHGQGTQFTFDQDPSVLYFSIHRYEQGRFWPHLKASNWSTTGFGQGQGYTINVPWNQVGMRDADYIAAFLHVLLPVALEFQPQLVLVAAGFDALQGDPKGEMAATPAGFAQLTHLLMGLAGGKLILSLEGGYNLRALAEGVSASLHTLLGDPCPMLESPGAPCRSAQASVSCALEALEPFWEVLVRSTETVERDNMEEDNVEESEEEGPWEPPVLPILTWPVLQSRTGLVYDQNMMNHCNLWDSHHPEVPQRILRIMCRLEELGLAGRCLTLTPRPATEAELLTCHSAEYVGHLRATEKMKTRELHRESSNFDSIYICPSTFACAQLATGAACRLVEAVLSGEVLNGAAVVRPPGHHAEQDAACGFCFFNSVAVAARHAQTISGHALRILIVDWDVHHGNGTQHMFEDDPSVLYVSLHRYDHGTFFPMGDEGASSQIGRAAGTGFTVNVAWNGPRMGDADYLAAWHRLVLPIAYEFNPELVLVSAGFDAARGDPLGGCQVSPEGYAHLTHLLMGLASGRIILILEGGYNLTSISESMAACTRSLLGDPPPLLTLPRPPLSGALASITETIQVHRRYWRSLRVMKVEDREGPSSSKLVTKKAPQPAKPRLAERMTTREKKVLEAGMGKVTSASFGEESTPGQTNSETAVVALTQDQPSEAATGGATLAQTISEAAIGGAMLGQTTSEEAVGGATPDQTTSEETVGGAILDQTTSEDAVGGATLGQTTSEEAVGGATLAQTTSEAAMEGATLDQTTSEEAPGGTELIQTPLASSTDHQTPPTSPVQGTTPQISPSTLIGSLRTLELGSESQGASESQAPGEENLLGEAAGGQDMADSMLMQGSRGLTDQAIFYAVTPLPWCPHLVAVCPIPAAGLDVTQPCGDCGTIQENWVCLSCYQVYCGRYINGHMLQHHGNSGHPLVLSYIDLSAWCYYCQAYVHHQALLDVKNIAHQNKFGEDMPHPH
Protocol: as §1
as §2, with “fit. The IC50 values obtained for several of the compounds of this invention are found in Table 1.” for “fit.”

Chain of HDAC1 (Q13547 whole entry): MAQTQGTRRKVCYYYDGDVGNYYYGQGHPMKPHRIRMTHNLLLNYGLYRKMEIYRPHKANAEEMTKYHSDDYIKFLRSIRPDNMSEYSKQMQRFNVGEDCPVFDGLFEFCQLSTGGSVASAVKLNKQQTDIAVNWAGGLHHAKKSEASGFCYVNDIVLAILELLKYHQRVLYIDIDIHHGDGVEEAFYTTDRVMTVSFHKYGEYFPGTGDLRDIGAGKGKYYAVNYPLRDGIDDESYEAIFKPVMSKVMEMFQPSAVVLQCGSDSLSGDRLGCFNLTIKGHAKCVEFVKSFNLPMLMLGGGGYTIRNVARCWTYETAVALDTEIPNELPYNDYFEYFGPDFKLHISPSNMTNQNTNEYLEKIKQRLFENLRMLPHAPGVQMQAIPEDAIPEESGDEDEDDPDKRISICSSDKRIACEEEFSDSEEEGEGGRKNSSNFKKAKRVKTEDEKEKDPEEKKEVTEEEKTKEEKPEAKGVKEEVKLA

| SMILES | IC50 (HDAC1) [nM] | IC50 (HDAC3) [nM] | IC50 (HDAC2) [nM] | IC50 (HDAC6) [nM] |
| --- | --- | --- | --- | --- |
| O=C(NO)c1cnc(NC2(c3ccccc3)CCN(C(=O)OCc3ccccc3)CC2)nc1 [Compound 002, benzyl 4-((5-(hydroxycarbamoyl)pyrimidin-2-yl)amino)-4-phenylpiperidine-1-carboxylate] | 1010 | 1640 | 983 | 2.6 |
| CC(=O)N1CCC(Nc2ncc(C(=O)NO)cn2)(c2ccccc2)CC1 [Compound 003, 2-((1-acetyl-4-phenylpiperidin-4-yl)amino)-N-hydroxypyrimidine-5-carboxamide] | 346 | 840 | 254 | 1.6 |
| CCOC(=O)N1CCC(Nc2ncc(C(=O)NO)cn2)(c2ccccc2)CC1 [Compound 004, ethyl 4-((5-(hydroxycarbamoyl)pyrimidin-2-yl)amino)-4-phenylpiperidine-1-carboxylate] | 275 | 1000 | 321 | 2.9 |
| CC(=O)N1CCC(Nc2ncc(C(=O)NO)cn2)(C(C)C)CC1 [Compound 005, 2-((1-acetyl-4-isopropylpiperidin-4-yl)amino)-N-hydroxypyrimidine-5-carboxamide] | 1830 | 8180 | 2390 | 5.9 |
| CCOC(=O)N1CCC(Nc2ncc(C(=O)NO)cn2)(C(C)C)CC1 [Compound 006, ethyl 4-((5-(hydroxycarbamoyl)pyrimidin-2-yl)amino)-4-isopropylpiperidine-1-carboxylate] | 697 | 3780 | 809 | 4 |
| CC(C)C1(Nc2ncc(C(=O)NO)cn2)CCN(C(=O)OCc2ccccc2)CC1 [Compound 007, benzyl 4-((5-(hydroxycarbamoyl)pyrimidin-2-yl)amino)-4-isopropylpiperidine-1-carboxylate] | 119 | 879 | 121 | 5.1 |
| COc1ccc(NC(=O)N2CCC(Nc3ncc(C(=O)NO)cn3)(c3ccccc3)CC2)cc1 [Compound 008, N-hydroxy-2-((1-((4-methoxyphenyl)carbamoyl)-4-phenylpiperidin-4-yl)amino)pyrimidine-5-carboxamide] | 21 | 546 | 24 | 1.5 |
| O=C(NO)c1cnc(NC2(c3ccccc3)CCN(c3ccccc3)CC2)nc1 [Compound 009, 2-((1,4-diphenylpiperidin-4-yl)amino)-N-hydroxypyrimidine-5-carboxamide] | 356 | 1780 | 380 | 2.1 |
| O=C(NO)c1cnc(NC2(c3ccccc3)CCN(C(=O)Nc3ccccc3F)CC2)nc1 [Compound 010, 2-((1-((2-fluorophenyl)carbamoyl)-4-phenylpiperidin-4-yl)amino)-N-hydroxypyrimidine-5-carboxamide] | 18 | 824 | 27 | 1.7 |
| CN(C(=O)N1CCC(Nc2ncc(C(=O)NO)cn2)(c2ccccc2)CC1)c1ccccc1 [Compound 012, N-hydroxy-2-((1-(methyl(phenyl)carbamoyl)-4-phenylpiperidin-4-yl)amino)pyrimidine-5-carboxamide] | 266 | 1620 | 377 | 2.2 |
| O=C(NO)c1cnc(NC2(c3ccccc3)CCN(C(=O)Nc3cccc(F)c3)CC2)nc1 [Compound 013, 2-((1-((3-fluorophenyl)carbamoyl)-4-phenylpiperidin-4-yl)amino)-N-hydroxypyrimidine-5-carboxamide] | 50 | 1080 | 74 | 2.5 |
| O=C(NO)c1cnc(NC2(c3ccccc3)CCN(C(=O)Nc3ccc(F)cc3)CC2)nc1 [Compound 014, 2-((1-((4-fluorophenyl)carbamoyl)-4-phenylpiperidin-4-yl)amino)-N-hydroxypyrimidine-5-carboxamide] | 33 | 1070 | 43 | 2 |
| Cc1ccc(NC(=O)N2CCC(Nc3ncc(C(=O)NO)cn3)(c3ccccc3)CC2)cc1 [Compound 015, N-hydroxy-2-((4-phenyl-1-(p-tolylcarbamoyl)piperidin-4-yl)amino)pyrimidine-5-carboxamide] | 34 | 693 | 46 | 2 |
| CNC(=O)N1CCC(Nc2ncc(C(=O)NO)cn2)(c2ccccc2)CC1 [Compound 016, N-hydroxy-2-((1-(methylcarbamoyl)-4-phenylpiperidin-4-yl)amino)pyrimidine-5-carboxamide] | 170 | 987 | 207 | 1.7 |
| O=C(NO)c1cnc(NC2(c3ccccc3)CCN(C(=S)Nc3ccccc3)CC2)nc1 [Compound 017, N-hydroxy-2-((4-phenyl-1-(phenylcarbamothioyl)piperidin-4-yl)amino)pyrimidine-5-carboxamide] | 5.9 | 111 | 5.2 | 2.4 |
| O=C(NO)c1cnc(NC2(c3ccccc3)CCN(S(=O)(=O)c3cccc(F)c3)CC2)nc1 [Compound 018, 2-((1-((3-fluorophenyl)sulfonyl)-4-phenylpiperidin-4-yl)amino)-N-hydroxypyrimidine-5-carboxamide] | 551 | 2480 | 644 | 5.1 |
| O=C(NO)c1cnc(NC2(c3ccccc3)CCN(S(=O)(=O)c3ccc(Cl)cc3)CC2)nc1 [Compound 019, 2-((1-((4-chlorophenyl)sulfonyl)-4-phenylpiperidin-4-yl)amino)-N-hydroxypyrimidine-5-carboxamide] | 854 | 3190 | 987 | 5 |

More lines, now with the values ahead:

| IC50 (HDAC1) [nM] | IC50 (HDAC3) [nM] | IC50 (HDAC2) [nM] | IC50 (HDAC6) [nM] | SMILES |
| --- | --- | --- | --- | --- |
| 20 | 84 | 18 | 13 | CC(C)[C@@H](C(=O)N1CCC(Nc2ncc(C(=O)NO)cn2)(c2ccccc2)CC1)c1ccccc1 (stereo in doubt) [Compound 025, N-hydroxy-2-((1-(3-methyl-2-phenylbutanoyl)-4-phenylpiperidin-4-yl)amino)pyrimidine-5-carboxamide] |
| 206 | 1100 | 173 | 5 | CC(C)[C@H](C(=O)N1CCC(Nc2ncc(C(=O)NO)cn2)(c2ccccc2)CC1)c1ccccc1 (stereo in doubt) [Compound 026, N-hydroxy-2-((1-(3-methyl-2-phenylbutanoyl)-4-phenylpiperidin-4-yl)amino)pyrimidine-5-carboxamide] |
| 102 | 914 | 93 | 11 | CC(C)C[C@H](C(=O)N1CCC(Nc2ncc(C(=O)NO)cn2)(c2ccccc2)CC1)c1ccccc1 (stereo in doubt) [Compound 029, N-hydroxy-2-((1-(4-methyl-2-phenylpentanoyl)-4-phenylpiperidin-4-yl)amino)pyrimidine-5-carboxamide] |
| 23 | 114 | 22 | 12 | CC(C)C[C@@H](C(=O)N1CCC(Nc2ncc(C(=O)NO)cn2)(c2ccccc2)CC1)c1ccccc1 (stereo in doubt) [Compound 030, N-hydroxy-2-((1-(4-methyl-2-phenylpentanoyl)-4-phenylpiperidin-4-yl)amino)pyrimidine-5-carboxamide] |
| 372 | 1980 | 423 | 4.5 | Cc1ccccc1S(=O)(=O)N1CCC(Nc2ncc(C(=O)NO)cn2)(c2ccccc2)CC1 [Compound 020, N-hydroxy-2-((4-phenyl-1-(o-tolylsulfonyl)piperidin-4-yl)amino)pyrimidine-5-carboxamide] |
| 570 | 2510 | 642 | 4.5 | Cc1ccc(S(=O)(=O)N2CCC(Nc3ncc(C(=O)NO)cn3)(c3ccccc3)CC2)cc1 [Compound 021, N-hydroxy-2-((4-phenyl-1-tosylpiperidin-4-yl)amino)pyrimidine-5-carboxamide] |
| 704 | 2700 | 782 | 7.3 | O=C(NO)c1cnc(NC2(c3ccccc3)CCN(S(=O)(=O)c3ccc(C(F)(F)F)cc3)CC2)nc1 [Compound 022, N-hydroxy-2-((4-phenyl-1-((4-(trifluoromethyl)phenyl)sulfonyl)piperidin-4-yl)amino)pyrimidine-5-carboxamide] |
